Experimental data reported in patent US20100234385A1 (Kaneka Corporation, priority 2006, published 2010).

Experiments:
melanocytes = assay: Inhibitory effect on melanocytes in vitro; assay type: cell-based
[1] = Sawabe et al. 2004, cited from earlier work
[2] = BH4 concentration in the brain after oral administration for 3 consecutive days to hph-1 mice; conditions: 5 mg/kg oral, 3 consecutive days at 24-hour intervals, 2.5 hours after final dosing, versus non-dose group
Description: The mice were biopsied 2.5 hours after the final dosing, their brains were excised and BH4 levels were quantified in the same manner as Example 1.

Compound | effects on melanocytes in vitro (melanocytes) | time of sharp peak of BH4 after administration [1] | time until BH4 concentration returns to the original level ([1]; after administration of BH4) | intracerebral BH4 concentrations [2]
6-(L-erythro-1,2-dihydroxypropyl)-pterin or 7-(L-erythro-1,2-dihydroxypropyl)-pterin [biopterin] | inhibitory effects |  |  | 
C[C@H](O)[C@H](O)[C@H]1CNc2nc(N)[nH]c(=O)c2N1 [BH4, L-erythro-5,6,7,8-tetrahydrobiopterin] |  | 0.5 to 1 h | about 4 hours | changes are not observed
